The target in this test is T1, recombinant mouse NPY5-receptor (mNPY5) (Mus musculus, UniProt O70342).
T1 construct: The full-length cDNA encoding the mouse NPY5 (mNPY5) receptor was amplified from mouse brain cDNA; expressed in transfected cells; membranes used
T1 sequence (O70342 1-466): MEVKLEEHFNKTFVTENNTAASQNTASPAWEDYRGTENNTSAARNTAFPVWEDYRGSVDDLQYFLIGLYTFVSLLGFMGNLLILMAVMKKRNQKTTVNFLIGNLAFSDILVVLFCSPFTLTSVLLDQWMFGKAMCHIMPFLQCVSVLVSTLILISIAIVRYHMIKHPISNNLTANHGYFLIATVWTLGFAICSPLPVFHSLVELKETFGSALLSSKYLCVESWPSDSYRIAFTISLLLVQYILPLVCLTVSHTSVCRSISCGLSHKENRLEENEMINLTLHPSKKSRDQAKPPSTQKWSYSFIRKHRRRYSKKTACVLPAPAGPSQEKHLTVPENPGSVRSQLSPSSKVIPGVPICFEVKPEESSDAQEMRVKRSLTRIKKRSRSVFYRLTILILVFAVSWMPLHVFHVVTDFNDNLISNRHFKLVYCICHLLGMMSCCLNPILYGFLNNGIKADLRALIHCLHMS
The test is described as follows: Radioligand competition binding. Conditions: displacement of 100 pM [125I]labelled peptide YY (PYY), membranes of HEK293 cells expressing mNPY5, 1 h at 22° C. The source says:
The full-length cDNA encoding the mouse NPY5 (mNPY5) receptor was amplified from mouse brain cDNA using specific primers, designed based on the published sequence, and Pfu DNA-Polymerase (Stratagene). The amplification product was subcloned into the mammalian expression vector pcDNA3 using Eco RI and XhoI restriction sites. Positive clones were sequenced and one clone, encoding the published sequence (see Borowsky B., et al., Regul. Pept., 75-76:45-53 (1998)) was selected for generation of stable cell clones.
Human embryonic kidney 293 (HEK293) (ATCC No. CRL-1573) cells were transfected with 10 μg mNPY5 DNA using the lipofectamine reagent (Gibco BRL) according to the manufacturer's instruction. Two days after transfection, geneticin selection (1 mg/ml) was initiated and several stable clones were isolated. One clone was further used for pharmacological characterization.
Human embryonic kidney 293 cells (HEK293), expressing recombinant mouse NPY5-receptor (mNPY5) were broken by three freeze/thawing cycles in hypotonic Tris buffer (5 mM, pH 7.4, 1 mM MgCl2), homogenized and centrifuged at 72,000×g for 15 min. […] Protein was determined according to the method of Lowry using bovine serum albumine (BSA) as a standard. […]
Background: In a radioligand displacement assay an active substance lowers the binding of a labelled ligand.

Usually IC50 stands for the concentration that inhibits the measured activity by half. In the case of `Cc1cc(N2CCCC2)c2ccc(NCC(C)C)cc2n1` [Example 2, isobutyl-(2-methyl-4-pyrrolidin-1-yl-quinolin-7-yl)-amine], the IC50 is 0.7 nM.

`Cc1cc(N2CCCC2)c2ccc(NC(=O)c3ccco3)cc2n1` [Example 54, furan-2-carboxylic acid (2-methyl-4-pyrrolidin-1-yl-quinolin-7-yl)-amide]: the IC50 stood at 0.3 nM.

Source of the values: patent US6696467B2, “Quinoline derivatives” (Hoffmann-La Roche Inc., priority 2002, dated 2004).
